# Test results from patent publication US12692257B2, “2,4,6-tri-substituted pyrimidine compounds as ATR kinase inhibitors” (BEIJING TIDE PHARMACEUTICAL CO., LTD., priority 2020, dated 2026).
# Where two headings read alike, the source gives them in different places.
# Key:
# [1] = tested on: MV4-11 (leukemia); assay: Cell proliferation inhibition in vitro, CellTiter-Glo, MV4-11; format: cell-based; conditions: Homo sapiens, read-out: MV4-11/IC50/μM
# Experimental: (§1) By detecting the effect of compounds on cell activity in vitro in tumor cell lines TOV21G (ovarian cancer) and MV4-11 (leukemia), the inhibitory effect of compounds on cell proliferation was studied in this assay.
# (§2) TOV21G cells and MV4-11 cells were purchased from American Type Culture Collection (ATCC).
# MV-4-11 cells were cultured in IMDM medium (containing 20% of FBS). About 10,000 cells were inoculated in each well of a 96-well culture plate, and treated by adding different concentrations (0-10 μM) of compounds to be assayed. Each group was assayed in triplicate. Blank wells (containing medium only) and control wells (inoculated cells without being treated with drug) were set. Cells were cultured for 120 hours. 40 μL of Cell Titer-Glo solutions were added to each well, and the cells were incubated with shaking for 20 min in the dark. 100 μL of solution was transferred from each well to a 96-well blank plate, and the luminescence value was read by Biotek Synergy HI multifunctional microplate reader. Inhibition rate (%)=100%×(control well−assay well)/(control well−blank well)
# [2] = tested on: TOV21G (ovarian cancer); assay: Cell proliferation inhibition in vitro, CellTiter-Glo, TOV21G; format: cell-based; conditions: Homo sapiens, read-out: TOV21G/IC50/μM
# Experimental: as §1, §2
# TOV21G cells were cultured in MCDB105/M199 medium (containing 15% of FBS), and used for assaying when the cell confluence reached 85% or more. About 1000 cells were inoculated in each well of a 96-well culture plate, and cultured for 24 hours. Different concentrations (0-10 μM) of compounds to be assayed were added to treat the cells. Each group was assayed in triplicate. Blank wells (containing medium only) and control wells (inoculated cells without being treated with drug) were set. Cells were cultured for 120 hours. 40 μL of Cell Titer-Glo solutions (Promega, #G7573) were added to each well, and the cells were incubated with shaking for 20 min in the dark. 100 μL of solution was transferred from each well to a 96-well blank plate (Corning, #3917), and the luminescence value was read by Biotek Synergy H1 multifunctional microplate reader.
# [3] = biological target: ATR kinase (Homo sapiens, UniProt Q13535); assay: Assay of ATR kinase activity (time-resolved fluorescence, phosphorylation of p53-derived protein); format: biochemical
# Experimental: Biotinylated protein derived from p53 (Eurofins, art. No.: 14-952) was phosphorylated with ATR kinase. The amount of phosphorylated protein was determined by time-resolved fluorescence in this assay. The amount of phosphorylated protein was detected by anti-p53-phospho-(serine 15)-K-specific antibody (Cisbio, art. No.: 61GSTDLA) and d2 labeled anti-GST antibody (Cisbio, art. No. 61P08KAE). Before the assay, the following working solutions were formulated as required: 1×reaction buffer (20 mM HEPES PH8.0, 1% glycerol, 0.01% Brij-35), dilution buffer (20 mM HEPES PH8.0, 1% glycerol, 0.01% Brij-35, 5 mM DTT and 1% BSA), stop solution (20 mM HEPES PH8.0, 1% glycerol, 0.01% Brij-35, 250 mM EDTA), detection buffer (50 mM HEPES pH7.0, 150 mM NaCl, 267 mM KF, 0.1% sodium cholate, 0.01% Tween-20, 0.0125% sodium azide). The reagents used above were purchased from Sigma or Invitrogen, except for those whose manufacturers were mentioned.
# Operations were as follows:
# 4× serially diluted compound solutions were prepared with 1× reaction buffer to give 9 compound solutions with different concentrations, and 2.5 μL of the 4× serially diluted compound solutions were added to a 384-well analysis plate (784075, Greiner). 4×p53 substrate working solution (40 nM) was prepared with 1× reaction buffer, and 2.5 μL of the 4×p53 substrate working solution was added to a 384-well analysis plate. 4×ATR/ATRIP working solution (12.8 ng/μL) was prepared with dilution buffer, and 2.5 μL of the 4×pATR/ATRIP working solution was added to a 384-well analysis plate. 4×ATP working solution (2 mM) was prepared with deionized water, and 2.5 μL of the 4×ATP working solution was added to a 384-well analysis plate. The plates were incubated at room temperature in dark for 30 minutes. 5 μL of stop solution was added to the 384 analysis plates. Finally, 5 μL of assay mixture (0.084 ng/μL Anti-phospho-p53(ser15)-K and 5 ng/μL Anti-GST-d2) was added to the 384 well analysis plates, and incubated at room temperature overnight. The fluorescence signal was detected with ENVISION (Perkinelmer) instrument (excitation wavelength: 320 nm, emission wavelength: 665 nm and 615 nm). The inhibition rate in each well was calculated by the fluorescence intensity value in each well:ER (Emission Ratio)=(Fluorescence intensity at 665 nm/Fluorescence intensity at 615 nm); inhibition rate=(ER of positive−ER of assay compound)/(ER of positive−ER of negative)×100%. IC50 values of compounds were calculated by standard software for parameter fitting (GraphPad Prism 6.0).
# [4] = MV4-11 cells, 120 hours, CellTiter-Glo
# [5] = TOV21G cells, 120 hours, CellTiter-Glo
# Chain of ATR kinase (Q13535 whole entry): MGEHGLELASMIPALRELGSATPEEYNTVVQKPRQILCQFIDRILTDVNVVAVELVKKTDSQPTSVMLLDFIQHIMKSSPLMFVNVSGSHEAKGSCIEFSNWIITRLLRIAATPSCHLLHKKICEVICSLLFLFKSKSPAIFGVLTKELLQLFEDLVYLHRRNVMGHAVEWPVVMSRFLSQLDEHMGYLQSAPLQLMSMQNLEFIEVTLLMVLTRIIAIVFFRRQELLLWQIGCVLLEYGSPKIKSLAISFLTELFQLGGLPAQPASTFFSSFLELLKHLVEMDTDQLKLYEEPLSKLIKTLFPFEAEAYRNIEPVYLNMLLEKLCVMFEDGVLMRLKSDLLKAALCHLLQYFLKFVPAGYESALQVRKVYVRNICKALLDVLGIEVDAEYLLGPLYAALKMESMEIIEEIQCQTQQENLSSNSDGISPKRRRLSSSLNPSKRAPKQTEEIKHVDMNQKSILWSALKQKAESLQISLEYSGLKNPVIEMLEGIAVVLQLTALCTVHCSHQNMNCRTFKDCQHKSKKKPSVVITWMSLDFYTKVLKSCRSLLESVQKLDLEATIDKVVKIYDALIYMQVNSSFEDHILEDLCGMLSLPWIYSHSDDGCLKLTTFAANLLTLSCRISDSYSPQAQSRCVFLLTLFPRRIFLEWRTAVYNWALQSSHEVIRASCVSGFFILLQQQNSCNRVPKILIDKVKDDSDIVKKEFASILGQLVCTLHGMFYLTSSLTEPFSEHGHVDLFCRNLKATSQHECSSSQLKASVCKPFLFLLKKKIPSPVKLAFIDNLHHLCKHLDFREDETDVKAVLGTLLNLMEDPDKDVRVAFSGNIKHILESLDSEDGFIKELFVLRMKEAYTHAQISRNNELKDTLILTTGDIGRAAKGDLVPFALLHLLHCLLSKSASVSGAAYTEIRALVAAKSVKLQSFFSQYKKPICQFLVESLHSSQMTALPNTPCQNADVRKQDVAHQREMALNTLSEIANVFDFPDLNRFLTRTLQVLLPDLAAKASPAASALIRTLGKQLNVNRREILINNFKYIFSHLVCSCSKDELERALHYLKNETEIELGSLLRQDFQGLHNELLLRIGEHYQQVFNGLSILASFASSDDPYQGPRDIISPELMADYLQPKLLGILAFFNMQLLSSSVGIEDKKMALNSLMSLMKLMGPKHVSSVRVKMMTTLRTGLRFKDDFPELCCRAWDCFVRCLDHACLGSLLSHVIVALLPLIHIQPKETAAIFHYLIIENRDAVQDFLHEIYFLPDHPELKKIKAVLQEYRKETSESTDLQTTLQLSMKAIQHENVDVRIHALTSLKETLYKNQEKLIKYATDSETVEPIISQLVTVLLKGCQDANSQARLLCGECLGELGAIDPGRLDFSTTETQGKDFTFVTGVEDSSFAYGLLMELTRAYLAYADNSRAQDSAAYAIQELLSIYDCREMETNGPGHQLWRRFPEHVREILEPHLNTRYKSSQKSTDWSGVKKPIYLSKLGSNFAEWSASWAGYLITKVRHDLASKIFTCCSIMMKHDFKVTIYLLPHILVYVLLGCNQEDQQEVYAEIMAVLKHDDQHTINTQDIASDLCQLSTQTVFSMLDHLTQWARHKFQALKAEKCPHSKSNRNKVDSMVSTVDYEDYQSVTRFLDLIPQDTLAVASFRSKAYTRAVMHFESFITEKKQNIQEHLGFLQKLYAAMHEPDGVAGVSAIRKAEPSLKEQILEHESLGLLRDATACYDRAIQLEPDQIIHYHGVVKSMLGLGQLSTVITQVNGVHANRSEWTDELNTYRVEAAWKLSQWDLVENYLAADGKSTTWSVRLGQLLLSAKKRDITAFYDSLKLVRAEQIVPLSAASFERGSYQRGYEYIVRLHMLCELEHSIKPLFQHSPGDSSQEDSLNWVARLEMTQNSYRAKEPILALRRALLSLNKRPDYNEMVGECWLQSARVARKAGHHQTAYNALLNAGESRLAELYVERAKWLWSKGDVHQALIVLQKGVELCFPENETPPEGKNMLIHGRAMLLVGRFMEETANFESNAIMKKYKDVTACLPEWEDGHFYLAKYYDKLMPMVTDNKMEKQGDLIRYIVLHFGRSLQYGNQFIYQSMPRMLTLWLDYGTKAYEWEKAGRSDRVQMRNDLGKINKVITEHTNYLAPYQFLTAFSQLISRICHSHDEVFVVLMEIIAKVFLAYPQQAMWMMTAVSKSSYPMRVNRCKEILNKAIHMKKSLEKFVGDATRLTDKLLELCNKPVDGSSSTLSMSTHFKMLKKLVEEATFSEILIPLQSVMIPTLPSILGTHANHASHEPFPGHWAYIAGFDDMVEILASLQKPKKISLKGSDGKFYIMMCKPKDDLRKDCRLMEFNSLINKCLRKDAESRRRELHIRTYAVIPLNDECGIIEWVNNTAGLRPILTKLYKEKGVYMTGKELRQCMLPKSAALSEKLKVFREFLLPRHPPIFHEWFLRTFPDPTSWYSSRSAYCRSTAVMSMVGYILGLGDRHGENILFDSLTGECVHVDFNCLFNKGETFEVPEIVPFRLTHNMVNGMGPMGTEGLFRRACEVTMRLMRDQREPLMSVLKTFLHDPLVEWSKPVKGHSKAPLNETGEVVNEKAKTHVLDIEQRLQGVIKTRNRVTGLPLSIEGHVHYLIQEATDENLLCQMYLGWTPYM
# Chain of ATR kinase (Q8WXE1 whole entry partner): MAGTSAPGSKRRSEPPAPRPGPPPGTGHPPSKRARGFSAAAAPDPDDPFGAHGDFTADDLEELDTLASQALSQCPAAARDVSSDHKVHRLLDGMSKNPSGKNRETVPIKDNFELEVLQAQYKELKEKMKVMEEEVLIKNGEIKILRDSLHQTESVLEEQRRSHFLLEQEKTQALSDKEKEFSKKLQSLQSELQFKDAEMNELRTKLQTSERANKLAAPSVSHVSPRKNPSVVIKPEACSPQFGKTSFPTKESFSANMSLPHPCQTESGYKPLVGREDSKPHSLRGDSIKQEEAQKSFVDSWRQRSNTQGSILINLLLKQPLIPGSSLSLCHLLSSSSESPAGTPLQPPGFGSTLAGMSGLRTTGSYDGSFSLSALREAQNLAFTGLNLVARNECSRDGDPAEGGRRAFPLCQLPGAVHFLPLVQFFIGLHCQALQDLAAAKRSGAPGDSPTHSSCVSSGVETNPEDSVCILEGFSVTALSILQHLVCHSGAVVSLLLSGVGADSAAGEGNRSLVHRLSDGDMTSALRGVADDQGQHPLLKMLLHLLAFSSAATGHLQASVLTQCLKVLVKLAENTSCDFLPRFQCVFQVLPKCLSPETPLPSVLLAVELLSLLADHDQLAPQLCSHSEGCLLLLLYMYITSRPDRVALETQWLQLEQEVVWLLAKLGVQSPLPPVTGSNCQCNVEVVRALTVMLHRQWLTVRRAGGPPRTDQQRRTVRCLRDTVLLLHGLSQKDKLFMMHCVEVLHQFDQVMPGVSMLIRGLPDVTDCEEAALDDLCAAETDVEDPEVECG
Compound,"IC50 [1, 4] [µM]","IC50 [2, 5] [µM]",IC50 [3] [nM],"IC50 ([1]; MV4-11, 120 h) [µM]","IC50 ([2]; TOV21G, 120 h) [µM]"
Cc1nn(-c2cncc(F)c2)c(C)c1-c1cc(C23CCOCC2C3)nc(-c2cccc3[nH]ccc23)n1 (stereo not shown) [Compound C3],0.632,0.667,16,–,–
Cc1nn(-c2cncc(C(F)(F)F)c2)c(C)c1-c1cc(N2CCOC[C@H]2C)nc(-c2cc(F)cc3[nH]ccc23)n1 [Compound A13],2.2,–,88,–,–
Cc1nn(-c2ccncc2)c(C)c1-c1cc(N2CCOC[C@H]2C)nc(-c2cc(F)cc3[nH]ccc23)n1 [Compound A2],0.635,0.397,8,–,–
COc1cncc(-n2nc(C)c(-c3cc(N4CCOC[C@H]4C)nc(-c4cc(F)cc5[nH]ccc45)n3)c2C)c1 [Compound A1],0.658,–,11,–,–
CNc1nc2ccccc2n1-c1nc(-c2c(C)nn(-c3ccc(=O)[nH]c3)c2C)cc(N2CCOC[C@H]2C)n1 [Compound B9],0.157,0.226,3,–,–
CNc1nc2ccccc2n1-c1nc(-c2c(C)nn(-c3cncc(Cl)c3)c2C)cc(N2CCOC[C@H]2C)n1 [Compound B3],0.303,0.411,49,–,–
Cc1nn(-c2cnccn2)c(C)c1-c1cc(N2CCOC[C@H]2C)nc(-c2cc(F)cc3[nH]ccc23)n1 [Compound A25],0.46,0.53,7,–,–
CNc1nc2ccccc2n1-c1nc(-c2c(C)nn(-c3cnc(N)c(F)c3)c2C)cc(N2CCOC[C@H]2C)n1 [Compound B5],0.208,0.383,16,–,–
CNc1nc2ccccc2n1-c1nc(-c2c(C)nn(-c3cncc(C(N)=O)c3)c2C)cc(N2CCOC[C@H]2C)n1 [Compound B10],0.287,0.219,5,–,–
COc1ccc(-n2nc(C)c(-c3cc(N4CCOC[C@H]4C)nc(-c4cc(F)cc5[nH]ccc45)n3)c2C)cn1 [Compound A5],0.778,0.647,30,–,–
Cc1nn(-c2cnccc2F)c(C)c1-c1cc(N2CCOC[C@H]2C)nc(-c2cc(F)cc3[nH]ccc23)n1 [Compound A14],0.231,0.522,9,–,–
Cc1nn(-c2cncc(F)c2)c(C)c1-c1cc(N2CCOC[C@H]2C)nc(-n2c(NCCO)nc3ccccc32)n1 [Compound B11],0.24,0.276,15,–,–
Cc1nn(-c2cncc(O)c2)c(C)c1-c1cc(N2CCOC[C@H]2C)nc(-c2cccc3[nH]ccc23)n1 [Compound A23],0.175,0.24,3,–,–
Cc1c(-c2cc(N3CCOC[C@H]3C)nc(-c3ccnc4[nH]ccc34)n2)c(C(F)(F)F)nn1-c1cncc(F)c1 [Compound A20],0.528,0.284,11,–,–
CNc1nc2ccccc2n1-c1nc(-c2c(C)nn(-c3cccnc3)c2C)cc(N2CCOC[C@H]2C)n1 [Compound B6],0.439,0.483,13,–,–
Cc1nn(-c2cncc(F)c2)c(C)c1-c1cc(N2CCOC[C@H]2C)nc(-n2c(N)nc3ccccc32)n1 [Compound B12],0.253,0.257,3,–,–
Cc1nn(-c2cncc(C(N)=O)c2)c(C)c1-c1cc(N2CCOC[C@H]2C)nc(-c2cccc3[nH]ccc23)n1 [Compound A24],0.18,0.22,1,–,–

Compound,"IC50 [1, 4] [µM]","IC50 [2, 5] [µM]",IC50 [3] [nM],"IC50 ([1]; MV4-11, 120 h) [µM]","IC50 ([2]; TOV21G, 120 h) [µM]"
Cc1nn(-c2cncc(C#N)c2)c(C)c1-c1cc(N2CCOC[C@H]2C)nc(-c2cc(F)cc3[nH]ccc23)n1 [Compound A9],0.198,0.28,16,–,–
CC#Cc1cncc(-n2nc(C)c(-c3cc(N4CCOC[C@H]4C)nc(-n4c(NC)nc5ccccc54)n3)c2C)c1 [Compound B8],0.519,0.212,69,–,–
Cc1nn(-c2cccnc2)c(C)c1-c1cc(N2CCOC[C@H]2C)nc(-c2cc(F)cc3[nH]ccc23)n1 [Compound A4],0.193,0.313,10,–,–
CCc1cncc(-n2nc(C)c(-c3cc(N4CCOC[C@H]4C)nc(-c4cc(F)cc5[nH]ccc45)n3)c2C)c1 [Compound A12],0.801,–,36,–,–
Cc1nn(-c2ccc(F)nc2)c(C)c1-c1cc(N2CCOC[C@H]2C)nc(-c2cc(F)cc3[nH]ccc23)n1 [Compound A6],0.656,0.423,14,–,–
Cc1nn(-c2cccnn2)c(C)c1-c1cc(N2CCOC[C@H]2C)nc(-c2cc(F)cc3[nH]ccc23)n1 [Compound A16],0.082,0.166,1,–,–
CNc1nc2ccccc2n1-c1nc(-c2c(C)nn(-c3cncc(C#N)c3)c2C)cc(N2CCOC[C@H]2C)n1 [Compound B4],0.25,0.306,17,–,–
Cc1nn(-c2ccc(=O)[nH]c2)c(C)c1-c1cc(N2CCOC[C@H]2C)nc(-n2c(NCCO)nc3ccccc32)n1 [Compound B13],–,–,5,–,–
CNc1nc2ccccc2n1-c1nc(-c2c(C)nn(-c3ccc(C#N)nc3)c2C)cc(N2CCOC[C@H]2C)n1 [Compound B2],0.133,0.278,22,–,–
Cc1nn(-c2ccnnc2)c(C)c1-c1cc(N2CCOC[C@H]2C)nc(-c2cc(F)cc3[nH]ccc23)n1 [Compound A15],0.107,0.234,2,–,–
Cc1nn(-c2cncc(C(F)F)c2)c(C)c1-c1cc(N2CCOC[C@H]2C)nc(-c2ccnc3[nH]ccc23)n1 [Compound A21],0.332,0.537,6,–,–
Cc1ncccc1-n1nc(C)c(-c2cc(N3CCOC[C@H]3C)nc(-c3cc(F)cc4[nH]ccc34)n2)c1C [Compound A8],0.382,0.274,9,–,–
Cc1nn(-c2ccc(=O)[nH]c2)c(C)c1-c1cc(N2CCOC[C@H]2C)nc(-c2cc(F)cc3[nH]ccc23)n1 [Compound A7],0.1,0.33,6,–,–
Cc1nn(-c2cncc(Cl)c2)c(C)c1-c1cc(N2CCOC[C@H]2C)nc(-c2ccnc3[nH]ccc23)n1 [Compound A18],0.451,0.208,1,–,–
Cc1nn(-c2cncc(F)c2)c(C)c1-c1cc(C23CCOCC2C3)nc(-c2cc(F)cc3[nH]ccc23)n1 (stereo not shown) [Compound C2],0.896,1.07,13,–,–
Cc1nn(-c2cncc(F)c2)c(C)c1-c1nc(-c2cccc3[nH]ccc23)nc(N2CCOC[C@H]2C)n1 [Compound C1],–,–,18,0.903,0.349
Cc1nn(-c2cnccc2Cl)c(C)c1-c1cc(N2CCOC[C@H]2C)nc(-c2cc(F)cc3[nH]ccc23)n1 [Compound A10],0.206,0.556,20,–,–
